# In US20260021119A1, “TETRACYCLINE DERIVATIVES” (ICM (INSTITUT DU CERVEAU ET DE LA MOELLE ÉPINIÈRE), priority 2022, published 2026):
# Key:
# E. coli ATCC 28922 = experiment: MIC, standardized protocols (Example 9); assay type: cell-based; conditions: Escherichia coli, ATCC28922
# From the text: (§1) Bacterial strains used in this study were: S. aureus (ATCC25923), E. coli (ATCC28922), E. faecalis (ATCC29212) and P. aeruginosa (PA01). The minimum inhibitory concentrations (MICs) were estimated using standardized protocols (Mawabo et al, J. Infect. Public Health 2015).
# E. faecalis ATCC 29212 = experiment: MIC, standardized protocols (Example 9); assay type: cell-based; conditions: Enterococcus faecalis, ATCC29212
# From the text: as §1
# P. aeruginosa PA01 = experiment: MIC, standardized protocols (Example 9); assay type: cell-based; conditions: Pseudomonas aeruginosa
# From the text: as §1
# S. aureus ATCC 25923 = experiment: MIC, standardized protocols (Example 9); assay type: cell-based; conditions: Staphylococcus aureus, ATCC25923
# From the text: as §1
# 4 test bacterial strains = experiment: Antimicrobial effects, summary over the 4 test bacterial strains (Example 9); assay type: cell-based
# From the text: as §1
# dopamine neurons = experiment: Neuroprotection in midbrain mouse cultures, survival of TH+ dopamine neurons; assay type: cell-based; conditions: 0.5 μM, 1 μM and 5 μM, div14
# Method: (§2) Midbrain mouse cultures were subjected to a maturation step until day in vitro (div) 7, and then gradually exposed to phenol red formulated DMEM/Nutrient mixture F12 Ham supplemented with 20 μg/mL of insulin and 2 μM of the NMDA receptor blocker MK-801. Under these conditions, which favor low-level, sustained oxidative insults, and lead ultimately to dopamine cell death, treatments with the compound of formula (Ib) according to the invention (at a concentration ranging from 0.1 to 5 μM) were performed or not, as well as treatments with the reference tetracycline antibiotic doxycycline (DOX; 10 μM) and the glycoprotein apotransferrin (APO; 100 μg/mL), the latter being used as reference neuroprotectant. At div14, cultures were fixed, and then processed for tyrosine hydroxylase (TH) immunocytochemistry to estimate the survival of dopamine neurons.
# as §2, with “(Ic)” for “(Ib)”, “with” for “with the reference tetracycline antibiotic doxycycline (DOX; 10 μM) and”
# [1] = tested on: primary mouse microglial cells (TNF-a release, LPS 10 ng/ml); experiment: Anti-inflammatory effect in LPS-activated primary mouse microglial cells, TNF-a ELISA; assay type: cell-based
# Method: Primary mouse microglial cells cultivated in Dulbecco's Modified Eagle Medium (DMEM) with no serum and 15 mM Hepes were challenged with lipopolysaccharide (LPS, 10 ng/ml) for 24 hours in the presence or not of the compound of formula (Ib) according to the present invention at concentrations of 1 μM, 5 μM, 25 μM and 50 μM. After that, the release of the proinflammatory cytokine TNF-a was estimated with an ELISA kit (ThermoFisher Scientific).
# [2] = tested on: p-tau (phosphorylated tau protein at Ser202, Thr205 residues); experiment: p-tau (AT8) expression in cultured cortical neurons under oxidative stress; assay type: cell-based, mouse; design: key to Reduction of the % of p-tau+ somas: a favorable response, synonymous with a decrease in the number of p-tau+ cell bodies; ++: a favorable response, synonymous with a decrease in the number of p-tau+ cell bodies; +++=reference level; an unfavorable response is represented by a sign “−”, synonymous with an elevation of the number of p-tau+ cell bodies; overexpression of p-tau in cortical cell bodies: dose or concentration left out as unconfirmed
# Method: A culture model of cortical neurons from mouse embryonic brain was used, in which neuronal cells were subjected to a maturation step until day in vitro (div) 7, before being gradually exposed to phenol red formulated DMEM/Nutrient mixture F12 Ham supplemented with 20 μg/mL of insulin, and 2 μM of the NMDA receptor blocker MK-801 (DF12i).
# Precisely, after 4 days of exposure to DF12i, between 10-15% of surviving neurons show a very strong AT8 immunosignal in their somas while only 1 to 1.5% of neuronal cell bodies are found immunopositive under conditions where oxidative stress is repressed by treatment with bovine apotransferrin (APO; 100 µg/mL, Sigma Aldrich), a glycoprotein with iron chelating properties. Likewise, overexpression of p-tau in cortical cell bodies is reduced by the two non-antibiotic tetracyclines compound of formula (C) ([…]) and compound of formula (Ib) ([…]): see the following Table: […]
# bacteria = experiment: Antimicrobial effect against bacteria (Example 13, no method given); assay type: cell-based
Structure (SMILES),MIC (E. coli ATCC 28922) [µM],MIC (E. faecalis ATCC 29212) [µM],MIC (P. aeruginosa PA01) [µM],MIC (S. aureus ATCC 25923) [µM],antimicrobial effects against the 4 test bacterial strains (4 test bacterial strains),neuroprotective effect (survival of dopamine neurons) (dopamine neurons),"reduction of proinflammatory effects of LPS (TNF-a release) ([1]; between 5 μM to 50 μM, LPS 10 ng/ml, 24 hours)",overexpression of p-tau in cortical cell bodies [2],"Reduction of the % of p-tau+ somas ([2]; compounds 3 μM, APO 100 μg/mL, mouse cortical cultures exposed div 7-11 to DF12i)","anti-inflammatory effects vis-à-vis 10 ng/mL LPS ([1]; 5 μM, 25 μM and 50 μM)",antimicrobial effect against bacteria (bacteria)
"C[C@@]1(O)c2cccc(O)c2C(=O)C2=C(O)C3C(=O)C(C(N)=O)=C(O)C[C@@H]3[C@@H](O)[C@@H]21 (stereo partly drawn) [Compound of formula (Ib), (4aS,5R,5aR,6S)-3,5,6,10,12-pentahydroxy-6-methyl-1,11-dioxo-1,4,4a,5,5a,6,11,12a-octahydrotetracene-2-carboxamide]",> 200,100,> 200,100,effective against none of them,highly protective,reduces significantly,reduced,+++,–,–
C[C@@]1(O)c2cccc(O)c2C(=O)C2=C(O)C3C(=O)C(C(N)=O)=C(O)CC3CC21 (stereo partly drawn) [Compound of formula (Ic)],–,–,–,–,–,highly protective,–,–,–,has anti-inflammatory effects,does not show any antimicrobial effect
